“Also recorded” adds a separate entry of the source.
Assays:
[1] = system: NMDA receptors; settings: cited from earlier work
[2] = system: rats; settings: cited from earlier work
[3] = target: norepinephrine transporter (Homo sapiens, UniProt P23975); settings: cited from earlier work
[4] = system: monoamine oxidase; settings: cited from earlier work
[5] = system: mice; settings: cited from earlier work
[6] = system: mice; settings: cited from earlier work; remark: listed apart in the source
[7] = target: T1, cytochrome P450 1A2 (Homo sapiens, UniProt P05177); settings: cited from earlier work
T1 sequence (P05177 1-516): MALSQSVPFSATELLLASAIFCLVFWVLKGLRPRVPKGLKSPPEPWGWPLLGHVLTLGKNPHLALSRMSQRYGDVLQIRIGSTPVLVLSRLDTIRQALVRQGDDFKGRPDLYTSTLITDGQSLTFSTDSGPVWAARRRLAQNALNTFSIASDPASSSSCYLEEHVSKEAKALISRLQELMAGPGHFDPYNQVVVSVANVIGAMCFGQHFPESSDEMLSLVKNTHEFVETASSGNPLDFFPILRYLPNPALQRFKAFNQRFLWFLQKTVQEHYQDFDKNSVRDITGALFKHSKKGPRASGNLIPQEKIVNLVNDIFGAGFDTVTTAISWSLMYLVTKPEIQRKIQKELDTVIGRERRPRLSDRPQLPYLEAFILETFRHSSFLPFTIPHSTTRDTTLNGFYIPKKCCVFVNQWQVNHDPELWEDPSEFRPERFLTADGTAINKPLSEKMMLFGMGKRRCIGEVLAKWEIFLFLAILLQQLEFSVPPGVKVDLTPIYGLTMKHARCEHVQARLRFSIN

[8] = system: Sprague-Dawley rats; assay: Acute effects on cocaine intravenous self-administration (Phase I, FR5); format: in vivo, rat; settings: sub-cohort I-b
Description: Adult male Sprague-Dawley rats (300-325 g at arrival) from Harlan Laboratory (Indiana, USA) were used. Upon arrival, the rats were assigned a unique identification numbers (tail marks). Animals were single housed in suspended polycarbonate rat cages with filter tops, and were acclimated for up to 7 days. All rats were examined, handled, and weighed prior to initiation of the study to assure adequate health and suitability. During the course of the study, 12 h/12 h light/dark cycles were maintained. The room temperature was 21-23° C. with a relative humidity maintained at 30-70%. Water was provided ad libitum for the duration of the study.
Cocaine Hydrochloride (Sigma-Aldrich, USA) (1.05 mg/ml which is equivalent to 0.3 mg/kg/infusion under 350 g body weight and 0.1 ml/infusion rate) was dissolved in saline (0.9% NaCl). The formulation was a clear solution.
Mavoglurant (free form) was formulated in 0.5% methylcellulose (MC) at 1, 3 and 10 mg/kg and administered orally at a dose volume of 1 ml/kg 60 minutes prior to test.
Intravenous drug self-administration took place in sound attenuated operant chambers equipped with an exhaust fan (Med Associates, VT). Each chamber contained two levers situated on one wall of the chamber. Only one of the two levers was active (located on the left side). Pressing the active lever caused delivery of reinforcer (food or cocaine). […]

[9] = system: Sprague-Dawley rats; assay: Cue-induced reinstatement of the cocaine self-administration response (Phase II); format: in vivo, rat; settings: 10 mg/kg PO, 1 hour prior to test; after 9-day extinction
Description: The methods for food training, catheter surgery, flushing and infusion confirmation were the same as those in Phase I.
Cocaine self-administration training in this stage was conducted in a separate cohort of rats (N=32). The methods of training were the same as those in Phase I, but the cues (light flash plus tone) appeared concurrently during cocaine infusion, and the cue light stayed on during the 20 second timeout period. As in Phase I, rats underwent 15 days of acquisition training.
After a stable rate of cocaine self-administration was achieved, the rats underwent a 9-day extinction procedure, which was similar to acquisition training except that pressing the active lever led to saline infusion instead of cocaine. During extinction sessions no cues were presented after an active lever-press. Rats were all reached the criterion for extinction (number of infusions ≤5, i.e. number of active lever responses <30 in the 1-hour session) in day 9 (last day) of extinction training.
During the reinstatement session, which occurred one day after the last extinction session, rats were presented the cues (flash+tone) at the beginning of the session and their lever-press responses recorded. There was no cocaine infusion during this reinstatement session, subject only received saline on a FR5 schedule. […]

Chain of norepinephrine transporter (P23975 whole entry, species assumed): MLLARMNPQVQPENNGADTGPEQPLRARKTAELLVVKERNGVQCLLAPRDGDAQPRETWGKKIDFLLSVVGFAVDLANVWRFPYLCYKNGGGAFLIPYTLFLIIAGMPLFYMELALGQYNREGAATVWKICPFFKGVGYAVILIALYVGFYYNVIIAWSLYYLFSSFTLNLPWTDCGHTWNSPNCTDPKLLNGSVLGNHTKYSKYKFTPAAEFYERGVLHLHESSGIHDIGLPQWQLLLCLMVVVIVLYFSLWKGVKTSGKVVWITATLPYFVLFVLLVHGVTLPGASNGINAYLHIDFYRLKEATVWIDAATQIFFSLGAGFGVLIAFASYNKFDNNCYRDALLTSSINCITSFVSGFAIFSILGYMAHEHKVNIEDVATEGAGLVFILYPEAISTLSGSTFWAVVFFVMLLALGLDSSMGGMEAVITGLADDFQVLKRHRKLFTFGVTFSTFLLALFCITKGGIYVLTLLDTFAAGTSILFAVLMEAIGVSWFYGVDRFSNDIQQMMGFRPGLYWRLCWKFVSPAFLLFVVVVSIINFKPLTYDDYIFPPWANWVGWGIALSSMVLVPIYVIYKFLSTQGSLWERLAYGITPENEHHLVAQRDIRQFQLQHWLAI

SMILES	off-target effects on NMDA receptors [1]	cocaine self-administration [2]	off-target effects on the norepinephrine transporter [3]	off-target effects on monoamine oxidase [4]	cocaine self-administration [5]	ethanol self-administration [6]	ethanol consumption [6]	inhibition of cytochrome P450 1A2 [7]	responding on the active lever (cocaine self-administration) ([8]; 3 mg/kg PO, 60 minutes prior to test, post hoc p<0.10)	responding on the active lever (cocaine self-administration) ([8]; 10 mg/kg PO, 1 hour prior to test, post hoc p<0.001)	cue-induced reinstatement of the self-administration response [9]
Cc1cccc(C#Cc2ccccc2)n1 [MPEP, 2-methyl-6-(2-phenylethynyl)pyridine]	off-target effects	decreased cocaine self-administration	off-target effects	off-target effects	decreased cocaine self-administration	decreased ethanol self-administration	–	–	–	–	–
Cc1nc(C#Cc2cccnc2)cs1 [MTEP, 3-[2-(2-methylthiazol-4-yl)ethynyl]pyridine]	–	decreased cocaine self-administration	–	–	–	decreased ethanol self-administration	decreased ethanol consumption	potent inhibition	–	–	–
COC(=O)N1CC[C@@H]2[C@H]1CCC[C@@]2(O)C#Cc1cccc(C)c1 [mavoglurant, (−)-(3aR,4S,7aR)-4-Hydroxy-4-m-tolylethynyl-octahydro-indole-1-carboxylic acid methyl ester]	–	–	–	–	–	–	–	–	tended to reduce responding on the active lever	significantly reduced responding; also recorded: significantly reduced cocaine self-administration	cue-induced reinstatement was suppressed; also recorded: completely prevented cue-induced reinstatement

Source: patent publication US12201612B2, “Use of mavoglurant in the reduction of alcohol use or in preventing relapse into alcohol use” (NOVARTIS AG, priority 2017, dated 2025)
